Experimental data: patent US10202354B2, “Therapeutic compounds and uses thereof” (GENENTECH, INC., priority 2015, dated 2019)
pIC50: −log10 of the molar value.

Target: Full length KDM2B (Homo sapiens (Human), UniProt Q8NHM5)
Test: KDM2B TR-FRET Assay for Determining Inhibitor IC50
Format: biochemical
Conditions: TR-FRET (HTRF), biotin-H3K36me2 peptide substrate
From the text: KDM2B TR-FRET Assay for Determining Inhibitor IC50
The KDM2B TR-FRET Assay described above represents an additional embodiment of the invention.

Sequence of Full length KDM2B (Q8NHM5 whole entry): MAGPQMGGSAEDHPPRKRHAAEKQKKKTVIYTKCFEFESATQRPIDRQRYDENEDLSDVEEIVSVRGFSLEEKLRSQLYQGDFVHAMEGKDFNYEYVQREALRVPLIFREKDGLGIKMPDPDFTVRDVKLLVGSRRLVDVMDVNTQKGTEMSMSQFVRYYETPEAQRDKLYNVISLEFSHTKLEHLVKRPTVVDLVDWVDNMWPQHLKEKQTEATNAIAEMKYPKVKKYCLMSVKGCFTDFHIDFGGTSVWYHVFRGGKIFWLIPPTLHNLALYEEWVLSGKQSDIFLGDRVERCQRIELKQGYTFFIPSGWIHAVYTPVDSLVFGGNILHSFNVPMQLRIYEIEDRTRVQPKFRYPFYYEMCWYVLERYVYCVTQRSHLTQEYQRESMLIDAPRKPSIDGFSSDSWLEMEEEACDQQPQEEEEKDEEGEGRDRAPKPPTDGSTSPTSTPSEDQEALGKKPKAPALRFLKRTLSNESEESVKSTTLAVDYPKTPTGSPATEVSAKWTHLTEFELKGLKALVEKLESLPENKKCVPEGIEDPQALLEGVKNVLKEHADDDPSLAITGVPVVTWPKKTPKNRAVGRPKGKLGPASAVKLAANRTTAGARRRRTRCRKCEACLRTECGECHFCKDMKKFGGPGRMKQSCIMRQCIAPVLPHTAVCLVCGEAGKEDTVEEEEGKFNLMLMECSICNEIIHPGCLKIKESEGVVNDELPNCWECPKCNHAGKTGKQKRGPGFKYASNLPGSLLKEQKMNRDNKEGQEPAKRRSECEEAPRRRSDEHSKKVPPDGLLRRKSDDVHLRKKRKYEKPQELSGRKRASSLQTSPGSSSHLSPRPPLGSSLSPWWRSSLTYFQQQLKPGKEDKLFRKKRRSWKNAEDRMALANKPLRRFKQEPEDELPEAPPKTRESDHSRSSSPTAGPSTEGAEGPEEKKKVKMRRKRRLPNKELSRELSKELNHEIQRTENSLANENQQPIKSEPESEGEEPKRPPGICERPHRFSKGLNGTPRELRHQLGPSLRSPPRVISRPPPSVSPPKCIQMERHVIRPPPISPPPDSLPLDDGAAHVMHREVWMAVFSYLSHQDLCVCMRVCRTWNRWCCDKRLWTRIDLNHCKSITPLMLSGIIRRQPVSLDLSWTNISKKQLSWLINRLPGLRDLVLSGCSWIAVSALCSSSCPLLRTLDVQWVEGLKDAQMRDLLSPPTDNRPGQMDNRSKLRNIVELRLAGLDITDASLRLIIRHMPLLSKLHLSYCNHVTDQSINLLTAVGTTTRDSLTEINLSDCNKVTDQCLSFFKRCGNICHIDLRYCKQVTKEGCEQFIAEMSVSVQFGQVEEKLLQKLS

Row | pIC50 | SMILES
1 | 9.41 | CC(C)c1ccc(S(=O)(=O)N2CCN=C2N2CCN(C3CC(F)C3)CC2)cc1 (centres unmarked) [Example 40, 1-(3-fluorocyclobutyl)-4-[1-(4-isopropylphenyl)sulfonyl-4,5-dihydroimidazol-2-yl]piperazine]
2 | 10.41 | CC(C)c1ccc(S(=O)(=O)N2C[C@@H](C3CC3)N=C2N2CCN(C3CCC3)CC2)cc1 [Example 41, (R)-1-cyclobutyl-4-(4-cyclopropyl-1-((4-isopropylphenyl)sulfonyl)-4,5-dihydro-1H-imidazol-2-yl)piperazine]
3 | 10.33 | CC(C)c1ccc(S(=O)(=O)N2C[C@H](C3CC3)N=C2N2CCN(C3CCC3)CC2)cc1 [Example 42, (S)-1-cyclobutyl-4-(4-cyclopropyl-1-((4-isopropylphenyl)sulfonyl)-4,5-dihydro-1H-imidazol-2-yl)piperazine]
4 | 8.06 | CCN1CCN(C2=N[C@H](C)CN2S(=O)(=O)c2ccc(C(C)C)cc2)CC1 [Example 43, (R)-1-ethyl-4-[1-(4-isopropylphenyl)sulfonyl-4-methyl-4,5-dihydroimidazol-2-yl]piperazine]
5 | 9.28 | CCN1CCN(C2=N[C@@H](C)CN2S(=O)(=O)c2ccc(C(C)C)cc2)CC1 [Example 44, (S)-1-ethyl-4-[1-(4-isopropylphenyl)sulfonyl-4-methyl-4,5-dihydroimidazol-2-yl]piperazine]
6 | 10.31 | CC(C)c1ccc(S(=O)(=O)N2CC3(CCCC3)N=C2N2CCN(C3CCC3)CC2)cc1 [Example 45, 2-(4-cyclobutylpiperazin-1-yl)-3-(4-isopropylphenyl)sulfonyl-1,3-diazaspiro[4.4]non-1-ene]
7 | 10.27 | CC(C)c1ccc(S(=O)(=O)N2C[C@@H](C)N=C2N2CCN(C3CCC3)CC2)cc1 [Example 46, (R)-1-cyclobutyl-4-[1-(4-isopropylphenyl)sulfonyl-4-methyl-4,5-dihydroimidazol-2-yl]piperazine]
8 | 9.94 | CC(C)c1ccc(S(=O)(=O)N2C[C@H](C)N=C2N2CCN(C3CCC3)CC2)cc1 [Example 47, (S)-1-cyclobutyl-4-[1-(4-isopropylphenyl)sulfonyl-4-methyl-4,5-dihydroimidazol-2-yl]piperazine]
9 | 8.37 | CC(C)c1ccc(S(=O)(=O)N2CCN=C2N2CCC(N3CCOCC3)CC2)cc1 [Example 49, 4-[1-[1-(4-isopropylphenyl)sulfonyl-4,5-dihydroimidazol-2-yl]-4-piperidyl]morpholine]
10 | 9.44 | Cn1c(=O)oc2cc(S(=O)(=O)N3CCN=C3N3CCN(C4CCC4)CC3)ccc21 [Example 55, 6-[[2-(4-cyclobutylpiperazin-1-yl)-4,5-dihydroimidazol-1-yl]sulfonyl]-3-methyl-1,3-benzoxazol-2-one]
11 | 9.84 | Cc1cccc(S(=O)(=O)N2CCN=C2N2CCN(C3CCC3)CC2)c1 [Example 59, 1-cyclobutyl-4-[1-(m-tolylsulfonyl)-4,5-dihydroimidazol-2-yl]piperazine]
12 | 9.56 | O=S(=O)(c1cccc(C(F)(F)F)c1)N1CCN=C1N1CCN(C2CCC2)CC1 [Example 60, 1-cyclobutyl-4-[1-[3-(trifluoromethyl)phenyl]sulfonyl-4,5-dihydroimidazol-2-yl]-piperazine]
13 | 9.51 | O=S(=O)(c1cc(Cl)cc(Cl)c1)N1CCN=C1N1CCN(C2CCC2)CC1 [Example 62, 1-cyclobutyl-4-[1-(3,5-dichlorophenyl)sulfonyl-4,5-dihydroimidazol-2-yl]piperazine]
14 | 9.30 | O=S(=O)(c1cccc2nonc12)N1CCN=C1N1CCN(C2CCC2)CC1 [Example 64, 4-[[2-(4-cyclobutylpiperazin-1-yl)-4,5-dihydroimidazol-1-yl]sulfonyl]-2,1,3-benzoxadiazole]
15 | 9.87 | O=S(=O)(c1ccc(Cl)c(Cl)c1)N1CCN=C1N1CCN(C2CCC2)CC1 [Example 67, 1-cyclobutyl-4-[1-(3,4-dichlorophenyl)sulfonyl-4,5-dihydromidazol-2-yl]piperazine]
16 | 7.94 | CCN1CCN(C2=NCCN2S(=O)(=O)c2ccc(Cl)c(Cl)c2)CC1 [Example 69, 1-[1-(3,4-dichlorophenyl)sulfonyl-4,5-dihydroimidazol-2-yl]-4-ethyl-piperazine]
17 | 10.03 | CC(=O)Nc1ccc(S(=O)(=O)N2CCN=C2N2CCN(C3CCC3)CC2)cc1 [Example 70, N-[4-[[2-(4-cyclobutylpiperazin-1-yl)-4,5-dihydroimidazol-1-yl]sulfonyl]phenyl]acetamide]
18 | 10.39 | O=S(=O)(c1ccc2cc(Cl)ccc2c1)N1CCN=C1N1CCN(C2CCC2)CC1 [Example 74, 1-[1-[(6-chloro-2-naphthyl)sulfonyl]-4,5-dihydroimidazol-2-yl]-4-cyclobutyl-piperazine]
19 | 9.90 | CC(=O)Nc1ccc(S(=O)(=O)N2CCN=C2N2CCN(C3CCC3)CC2)cc1Cl [Example 81, N-[2-chloro-4-[[2-(4-cyclobutylpiperazin-1-yl)-4,5-dihydroimidazol-1-yl]sulfonyl]phenyl]acetamide]
20 | 8.15 | O=C(c1ccccc1)N1CCN=C1N1CCN(C2CCC2)CC1 [Example 82, [2-(4-cyclobutylpiperazin-1-yl)-4,5-dihydroimidazol-1-yl]-phenyl-methanone]

Row | pIC50 | SMILES
21 | 8.51 | Cc1ccccc1C(=O)N1CCN=C1N1CCN(C2CCC2)CC1 [Example 83, [2-(4-cyclobutylpiperazin-1-yl)-4,5-dihydroimidazol-1-yl]-(o-tolyl)methanone]
22 | 8.57 | Cc1ccc(C(=O)N2CCN=C2N2CCN(C3CCC3)CC2)cc1 [Example 84, [2-(4-cyclobutylpiperazin-1-yl)-4,5-dihydroimidazol-1-yl]-(p-tolyl)methanone]
23 | 8.51 | Cc1cccc(C(=O)N2CCN=C2N2CCN(C3CCC3)CC2)c1 [Example 85, [2-(4-cyclobutylpiperazin-1-yl)-4,5-dihydroimidazol-1-yl]-(m-tolyl)methanone]
24 | 8.69 | O=C(c1cccc(Cl)c1)N1CCN=C1N1CCN(C2CCC2)CC1 [Example 86, (3-chlorophenyl)-[2-(4-cyclobutylpiperazin-1-yl)-4,5-dihydroimidazol-1-yl]methanone]
25 | 8.65 | O=C(c1ccccc1Cl)N1CCN=C1N1CCN(C2CCC2)CC1 [Example 87, (2-chlorophenyl)-[2-(4-cyclobutylpiperazin-1-yl)-4,5-dihydroimidazol-1-yl]methanone]
26 | 8.66 | O=C(c1ccc(Cl)cc1)N1CCN=C1N1CCN(C2CCC2)CC1 [Example 88, (4-chlorophenyl)-[2-(4-cyclobutylpiperazin-1-yl)-4,5-dihydroimidazol-1-yl]methanone]
27 | 8.36 | COc1ccc(C(=O)N2CCN=C2N2CCN(C3CCC3)CC2)cc1 [Example 89, [2-(4-cyclobutylpiperazin-1-yl)-4,5-dihydroimidazol-1-yl]-(4-methoxyphenyl)methanone]
28 | 8.64 | COc1cccc(C(=O)N2CCN=C2N2CCN(C3CCC3)CC2)c1 [Example 90, [2-(4-cyclobutylpiperazin-1-yl)-4,5-dihydroimidazol-1-yl]-(3-methoxyphenyl)methanone]
29 | 7.94 | COc1ccccc1C(=O)N1CCN=C1N1CCN(C2CCC2)CC1 [Example 91, [2-(4-cyclobutylpiperazin-1-yl)-4,5-dihydroimidazol-1-yl]-(2-methoxyphenyl)methanone]
30 | 8.85 | CC1CCC(N2CCN(C3=NCCN3S(=O)(=O)c3ccc(C(C)C)cc3)CC2)C1 (centres unmarked) [Example 94, 1-[1-(4-isopropylphenyl)sulfonyl-4,5-dihydroimidazol-2-yl]-4-(3-methylcyclopentyl)piperazine]
31 | 8.99 | CCN1CCN(C2=NCCN2S(=O)(=O)c2ccc(-c3ccc(F)cc3)cc2)CC1 [Example 98, 1-ethyl-4-[1-[4-(4-fluorophenyl)phenyl]sulfonyl-4,5-dihydroimidazol-2-yl]piperazine]
32 | 8.21 | CCN1CCN(C2=NCCN2S(=O)(=O)c2cccc(OC(F)(F)F)c2)CC1 [Example 99, 1-ethyl-4-[1-[3-(trifluoromethoxy)phenyl]sulfonyl-4,5-dihydroimidazol-2-yl]piperazine]
33 | 8.55 | CCN1CCN(C2=NCCN2S(=O)(=O)c2ccc(Cl)cc2Cl)CC1 [Example 100, 1-[1-(2,4-dichlorophenyl)sulfonyl-4,5-dihydroimidazol-2-yl]-4-ethyl-piperazine]
34 | 8.78 | CCN1CCN(C2=NCCN2S(=O)(=O)c2ccc(OC(F)(F)F)cc2)CC1 [Example 102, 1-ethyl-4-[1-[4-(trifluoromethoxy)phenyl]sulfonyl-4,5-dihydroimidazol-2-yl]piperazine]
35 | 8.16 | CCN1CCN(C2=NCCN2S(=O)(=O)c2cccc(C(F)(F)F)c2)CC1 [Example 103, 1-ethyl-4-[1-[3-(trifluoromethyl)phenyl]sulfonyl-4,5-dihydroimidazol-2-yl]piperazine]
36 | 8.11 | CCN1CCN(C2=NCCN2S(=O)(=O)c2cccc(OC(F)F)c2)CC1 [Example 104, 1-[1-[3-(difluoromethoxy)phenyl]sulfonyl-4,5-dihydroimidazol-2-yl]-4-ethyl-piperazine]
37 | 8.48 | CCN1CCN(C2=NCCN2S(=O)(=O)c2ccc(OC(F)F)cc2)CC1 [Example 105, 1-[1-[4-(difluoromethoxy)phenyl]sulfonyl-4,5-dihydroimidazol-2-yl]-4-ethyl-piperazine]
38 | 8.45 | CCN1CCN(C2=NCCN2S(=O)(=O)c2cc(Cl)ccc2Cl)CC1 [Example 106, 1-[1-(2,5-dichlorophenyl)sulfonyl-4,5-dihydroimidazol-2-yl]-4-ethyl-piperazine]
39 | 8.41 | CCN1CCN(C2=NCCN2S(=O)(=O)c2ccc(C(F)(F)F)cc2)CC1 [Example 107, 1-ethyl-4-[1-[4-(trifluoromethyl)phenyl]sulfonyl-4,5-dihydroimidazol-2-yl]piperazine]
40 | 7.89 | CCN1CCN(C2=NCCN2S(=O)(=O)c2c(F)cccc2F)CC1 [Example 108, 1-[1-(2,6-difluorophenyl)sulfonyl-4,5-dihydroimidazol-2-yl]-4-ethyl-piperazine]

Row | SMILES | pIC50
41 | CC(C)c1ccc(S(=O)(=O)N2CCN=C2N2C3CCC2CN(C2CCC2)C3)cc1 [Example 48, 3-cyclobutyl-8-[1-(4-isopropylphenyl)sulfonyl-4,5-dihydroimidazol-2-yl]-3,8-diazabicyclo[3.2.1]octane] | 8.93
